The results in this text go back to patent US8329645B2, “Polymyxin derivatives and uses thereof” (priority 2008, dated 2012).

Assay [1] concerns E. coli IH3080. In words: Growth inhibition around wells on LB agar plates. The class given is cell-based, Escherichia coli. The method, then: Peptides synthesized in Example 1, all carrying at least two (2) but not more than three (3) positive charges, were studied for their ability to inhibit the growth of E. coli. This was tested employing LB agar (LB Agar Lennox, Difco, BD, Sparks, Md., U.S.A) plates. The indicator organism E. coli IH3080 (K1:O018) was an encapsulated strain originally isolated from a neonate suffering from meningitis (Vaara et al. 1984) and obtained from National Public Health Institute, Helsinki, Finland.
(§1) From an overnight-grown culture of IH3080 on LB agar, a suspension of approx. 10^8 cells/ml was prepared in 0.9% NaCl. Aliquots of this suspension were then pipetted on the agar plates and the plates were gently shaken to spread the suspension evenly on the entire surface of the plate. Thereafter, the unabsorbed part of the suspension was removed by using a Pasteur pipette. After the surface had dried, small wells (diameter, 2 mm) were drilled on the plates (five wells per plate) by using a sterile sharp-edged narrow metal tube, single-use pipette tip, and vacuum suction. An alternative method used a swab to spread the inoculum. […] Controls included 0.9% NaCl solution without the compound to be tested. The plates were then incubated for 18 h at 37° C. whereafter the diameters of growth inhibition zones around each well were measured; the diameter of the well itself was not reduced. Finally, the diameters were converted to surface areas of growth inhibition (in square mm).

The subject of a further assay is A. baumannii ATCC 19606. Briefly: Sensitization to rifampin: growth inhibition around wells on LB plates containing rifampin. Particulars: 4 μg. Format: cell-based, Acinetobacter baumannii.
Assay [2] has as its system Acinetobacter baumannii ATCC 19606. Briefly: Growth inhibition around wells on LB agar plates. Particulars: A. baumannii ATCC 19606. Format: cell-based. The method, then: as §1
(§2) Direct antibacterial activity of sixteen NAB compounds against Acinetobacter baumannii ATCC 19606 and Pseudomonas aeruginosa ATCC 27853 was tested by using the susceptibility determination method described in Example 2. Five compounds (NAB7062, NAB734, NAB737, NAB739, and NAB740) had very notable activity against A. baumannii. […] The antibacterial activity of NAB739 and NAB740 were as strong as or even stronger than that of polymyxin B.

Assay [3] relates to Pseudomonas aeruginosa ATCC 27853. Briefly: Growth inhibition around wells on LB agar plates. Format: cell-based. Particulars: Ps. aeruginosa ATCC 27853. The method, then: (§3) From an overnight-grown culture of IH3080 on LB agar, a suspension of approx. 10^8 cells/ml was prepared in 0.9% NaCl. Aliquots of this suspension were then pipetted on the agar plates and the plates were gently shaken to spread the suspension evenly on the entire surface of the plate. Thereafter, the unabsorbed part of the suspension was removed by using a Pasteur pipette. After the surface had dried, small wells (diameter, 2 mm) were drilled on the plates (five wells per plate) by using a sterile sharp-edged narrow metal tube, single-use pipette tip, and vacuum suction. An alternative method used a swab to spread the inoculum. Samples (4 μl and 10 μl) of the peptide solution in 0.9% NaCl (at concentrations of 1 μg/ml and 0.1 μg/ml) were then pipetted to the wells and the sample fluids were allowed to absorb. Controls included 0.9% NaCl solution without the compound to be tested. The plates were then incubated for 18 h at 37° C. whereafter the diameters of growth inhibition zones around each well were measured; the diameter of the well itself was not reduced. Finally, the diameters were converted to surface areas of growth inhibition (in square mm).
as §2

For assay [4], the system named is Ps. aeruginosa ATCC 27853. Briefly: Sensitization to rifampin: growth inhibition around wells on LB plates containing rifampin. The class given is cell-based, Pseudomonas aeruginosa. The following applies: 4 μg.
Assay [5] relates to E. coli IH3080. The assay is described as above. The class given is cell-based, Escherichia coli. Particulars: 4 μg of compound. The method, then: as §3

Take “OA-Thr-Abu-cy[Dab-Dab-DLeu-Leu-Dab-Dab-Thr-] [NAB 718]”: the “growth inhibition around a well” value (in the assay on E. coli IH3080 [1] (4 μg of compound per well); with E. coli IH3080 [1] (10 μg of compound per well); in assay [2] (4 μg); in assay [2] (10 μg); in assay [3] (4 μg); in assay [3] (10 μg)) was 0 square millimeters throughout. Moreover, the “growth inhibition around a well in the presence of rifampin” value in the assay with A. baumannii ATCC 19606 (rifampin 0 μg/ml) was 0 square millimeters; with A. baumannii ATCC 19606 (rifampin 0.1 μg/ml) it was 0 square millimeters; with A. baumannii ATCC 19606 (rifampin 0.3 μg/ml), 38 square millimeters; in assay [4] (rifampin 0 μg/ml), 0 square millimeters; in assay [4] (rifampin 0.1 μg/ml), 0 square millimeters; in assay [4] (rifampin 0.3 μg/ml), 0 square millimeters. Further, the “growth inhibition around a well in the presence of rifampin” value was found to be 0 square millimeters in the assay with E. coli IH3080 [5] (rifampin 0 μg/ml), 13 square millimeters in the assay with E. coli IH3080 [5] (rifampin 0.1 μg/ml) and 133 square millimeters in the assay with E. coli IH3080 [5] (rifampin 1.0 μg/ml).
On to “DA-cy[Dab-Dab-DPhe-Leu-Dab-Dab-Thr-] [NAB 736]”, for which the “growth inhibition around a well” value in the assay on E. coli IH3080 [1] (4 μg of compound per well) worked out at 0 square millimeters; in the assay with E. coli IH3080 [1] (10 μg of compound per well), 0 square millimeters; in assay [2] (4 μg), 0 square millimeters; in assay [2] (10 μg), 0 square millimeters; in assay [3] (4 μg), 38 square millimeters; in assay [3] (10 μg), 79 square millimeters. Further, the “growth inhibition around a well in the presence of rifampin” value in the assay on A. baumannii ATCC 19606 (rifampin 0 μg/ml) stood at 0 square millimeters; in the assay on A. baumannii ATCC 19606 (rifampin 0.1 μg/ml), 95 square millimeters; in the assay with A. baumannii ATCC 19606 (rifampin 0.3 μg/ml) it was 154 square millimeters; in assay [4] (rifampin 0 μg/ml), 38 square millimeters; in assay [4] (rifampin 0.1 μg/ml), 38 square millimeters; in assay [4] (rifampin 0.3 μg/ml), 38 square millimeters. The “growth inhibition around a well in the presence of rifampin” value in the assay with E. coli IH3080 [5] (rifampin 0 μg/ml) is given as 0 square millimeters; in the assay with E. coli IH3080 [5] (rifampin 0.1 μg/ml) it was 113 square millimeters; in the assay on E. coli IH3080 [5] (rifampin 1.0 μg/ml), 133 square millimeters.
Take “OA-Ala-Thr-DSer-cy[Dab-Dab-DPhe-Leu-Dab-Dab-Thr-] [NAB 749]”: the “growth inhibition around a well” value was found to be 113 square millimeters with E. coli IH3080 [1] (4 μg of compound per well); 158 square millimeters in the assay on E. coli IH3080 [1] (10 μg of compound per well); 20 square millimeters in assay [2] (4 μg); 38 square millimeters in assay [2] (10 μg); 20 square millimeters in assay [3] (4 μg); 28 square millimeters in assay [3] (10 μg). In addition, the “growth inhibition around a well in the presence of rifampin” value with A. baumannii ATCC 19606 (rifampin 0 μg/ml) was found to be 20 square millimeters; in the assay on A. baumannii ATCC 19606 (rifampin 0.1 μg/ml), 154 square millimeters; in the assay on A. baumannii ATCC 19606 (rifampin 0.3 μg/ml), 201 square millimeters; in assay [4] (rifampin 0 μg/ml), 20 square millimeters; in assay [4] (rifampin 0.1 μg/ml) it was 20 square millimeters; in assay [4] (rifampin 0.3 μg/ml), 13 square millimeters. Besides, the “growth inhibition around a well in the presence of rifampin” value is given as 133 square millimeters with E. coli IH3080 [5] (rifampin 0 μg/ml), 133 square millimeters in the assay on E. coli IH3080 [5] (rifampin 0.1 μg/ml) and 177 square millimeters with E. coli IH3080 [5] (rifampin 1.0 μg/ml).
